Data taken from patent US8835484B2, “Naphthocyanines for use as contrast agents” (Alamedics GmbH & Co. KG, priority 2010, dated 2014).

Tests used:
[1] = Fluorescence quantum yield; format: physicochemical; details: CHCl3; Reference: S-13 with Φ=1.00
From the text: IR spectra: Perkin Elmer Spectrum BX II, using a diamond anvil cell; UV/Vis spectra: Varian Cary 5000 and Bruins Omega 20; fluorescence spectra: Varian Eclispe; NMR spectroscopy: Varian Vnmrs 600 (600 MHz, 400 MHz, 200 MHz); mass spectrometry: Thermo Finnigan LQT FT.

[2] = Solid cyanine dye stability comparison; format: physicochemical; details: storage
From the text: Decomposition of the solid dye results in a red coloration of the solid and the solution. Carboxylic acid esters, especially methyl ester, are particularly sensitive in addition to the bromides.

[3] = tested on: lens capsule; assay: Dye tests on porcine eyes (lens capsule staining); design: key: +++: visually assessed very strong coloration; ++: good coloration; +: satisfactory coloration; −: weak or absent coloration; details: incubated, rinsed after one minute
Procedure: For the dye test, in each case 5 mg dye was dissolved in 500 μL ethanol and diluted to 2 mL with BSS Plus solution as the stock solution, and then correspondingly further diluted. As an alternative, one can prepare stock solutions of the dye by dissolving, for example, 5 mg dye in 1 mL distilled water, adding 7 mL BSS solution and then combining with 1 mL NaCl solution having an osmolality of 620 (approximately 2%) in order to restore the original osmolality of the BSS solution (308). This stock solution can be correspondingly further diluted with BSS solution as required. Enucleated porcine eyes were used having a post mortem time period of a few hours. To dye the lens capsule, the cornea was first removed. Thereafter, the iris was resected and the capsular support was severed. The lens with intact lens capsule was removed and placed in a bowl filled with BSS. The lenses were thereafter incubated with the dyes according to the invention at various concentrations and then rinsed after one minute. The dye pattern was photographically documented, whereby the coloration was assessed without additional illumination, and fluorescence was assessed with illumination (Xenon lamp, halogen lamp with typical endoillumination source and fiber optics). The lens capsule is a very good model for dyeing due to the fact that it is a basal membrane, as is the ILM of the retina. Both structures are important target structures in eye surgery.

| Compound | Fluorescence quantum yield [1] | Stability [2] | coloration of lens capsule ([3]; dye concentration 0.0025%) | coloration of lens capsule ([3]; dye concentration 0.025%) | coloration of lens capsule ([3]; dye concentration 0.25%) | coloration of lens capsule ([3]; dye concentration 0.5%) |
| --- | --- | --- | --- | --- | --- | --- |
| 3,3′-Di-(5-bromodecyl)-1,1,1′,1′-tetramethyl-1H-dibenzo[e]indocarbocyanine bromide [Dye 3x] | 0.10 | No decomposition after 4 months |  |  |  |  |
| CC1(C)C(/C=C/C=C2\N(CCC(=O)O)c3ccc4ccccc4c3C2(C)C)=[N+](CCC(=O)O)c2ccc3ccccc3c21.[Br-] [Dye 3a, 3,3′-Di-(2-carboxyethyl)-1,1,1′,1′-tetramethyl-1H-dibenzo[e]indocarbocyanine bromide] | 0.35 |  | − | + | ++ | ++ |
| CC1(C)C(=CC=CC2=[N+](CCCCC(=O)O)c3ccc4ccccc4c3C2(C)C)N(CCCCC(=O)O)c2ccc3ccccc3c21.[Br-] [Dye 3b, 3,3′-Di-(4-carboxybutyl)-1,1,1′,1′-tetramethyl-1H-dibenzo[e]indocarbocyanine bromide] | 0.49 |  |  |  |  |  |
| CC1(C)C(=CC=CC2=[N+](CCCCCC(=O)O)c3ccc4ccccc4c3C2(C)C)N(CCCCCC(=O)O)c2ccc3ccccc3c21.[Br-] [Dye 3c, 3,3′-Di-(5-carboxypentyl)-1,1,1′,1′-tetramethyl-1H-dibenzo[e]indocarbocyanine bromide] | 0.50 |  | − | − | +++ | +++ |
| CC1(C)C(=CC=CC2=[N+](CCCCCCCC(=O)O)c3ccc4ccccc4c3C2(C)C)N(CCCCCCCC(=O)O)c2ccc3ccccc3c21.[Br-] [Dye 3d, 3,3′-Di-(7-carboxyheptyl)-1,1,1′,1′-tetramethyl-1H-dibenzo[e]indocarbocyanine bromide] | 0.43 |  | − | − | + | +++ |
| CC1(C)C(=CC=CC2=[N+](CCCCCCCCCC(=O)O)c3ccc4ccccc4c3C2(C)C)N(CCCCCCCCCC(=O)O)c2ccc3ccccc3c21.[Br-] [Dye 3e, 3,3′-Di-(9-carboxynonyl)-1,1,1′,1′-tetramethyl-1H-dibenzo[e]indocarbocyanine bromide] | 0.59 |  | − | − | ++ | ++ |
| CC1(C)C(=CC=CC2=[N+](CCCCCCCCCCC(=O)O)c3ccc4ccccc4c3C2(C)C)N(CCCCCCCCCCC(=O)O)c2ccc3ccccc3c21.[Br-] [Dye 3f, 3,3′-Di-(10-carboxydecyl)-1,1,1′,1′-tetramethyl-1H-dibenzo[e]indocarbocyanine bromide] | 0.33 |  |  |  |  |  |
| CC1(C)C(=CC=CC2=[N+](CCCCCCCCCCCC(=O)O)c3ccc4ccccc4c3C2(C)C)N(CCCCCCCCCCCC(=O)O)c2ccc3ccccc3c21.[Br-] [Dye 3g, 3,3′-Di-(11-carboxyundecyl)-1,1,1′,1′-tetramethyl-1H-dibenzo[e]indocarbocyanine bromide] | 0.35 |  | − | − | ++ | ++ |
| COC(=O)CCN1C(=CC=CC2=[N+](CCC(=O)OC)c3ccc4ccccc4c3C2(C)C)C(C)(C)c2c1ccc1ccccc21.[Br-] [Dye 3h, 3,3′-Di-(2-methoxycarbonylethyl)-1,1,1′,1′-tetramethyl-1H-dibenzo[e]indocarbocyanine bromide] | 0.24 |  | − | + | ++ | +++ |
| COC(=O)CCCCN1C(=CC=CC2=[N+](CCCCC(=O)OC)c3ccc4ccccc4c3C2(C)C)C(C)(C)c2c1ccc1ccccc21.[Br-] [Dye 3i, 3,3′-Di-(4-methoxycarbonylbutyl)-1,1,1′,1′-tetramethyl-1H-dibenzo[e]indocarbocyanine bromide] | 0.40 |  | − | + | + | ++ |
| COC(=O)CCCCCCCCCN1C(=CC=CC2=[N+](CCCCCCCCCC(=O)OC)c3ccc4ccccc4c3C2(C)C)C(C)(C)c2c1ccc1ccccc21.[Br-] [Dye 3j, 3,3′-Di-(9-methoxycarbonylnonyl)-1,1,1′,1′-tetramethyl-1H-dibenzo[e]indocarbocyanine bromide] | 0.47 |  | − | − | + | ++ |
| COC(=O)CCCCCCCCCCN1C(=CC=CC2=[N+](CCCCCCCCCCC(=O)OC)c3ccc4ccccc4c3C2(C)C)C(C)(C)c2c1ccc1ccccc21.[Br-] [Dye 3k, 3,3′-Di-(10-methoxycarbonyldecyl)-1,1,1′,1′-tetramethyl-1H-dibenzo[e]indocarbocyanine bromide] | 0.36 |  | − | − | + | ++ |
| CCOC(=O)CCN1C(=CC=CC2=[N+](CCC(=O)OCC)c3ccc4ccccc4c3C2(C)C)C(C)(C)c2c1ccc1ccccc21.[Br-] [Dye 3l, 3,3′-Di-(2-ethoxycarbonylethyl)-1,1,1′,1′-tetramethyl-1H-dibenzo[e]indocarbocyanine bromide] | 0.33 |  | − | + | +++ | +++ |
| CCOC(=O)CCCN1C(=CC=CC2=[N+](CCCC(=O)OCC)c3ccc4ccccc4c3C2(C)C)C(C)(C)c2c1ccc1ccccc21.[Br-] [Dye 3m, 3,3′-Di-(3-ethoxycarbonylpropyl)-1,1,1′,1′-tetramethyl-1H-dibenzo[e]indocarbocyanine bromide] | 0.61 |  | − | − | ++ | +++ |
| CCOC(=O)CCCCN1C(=CC=CC2=[N+](CCCCC(=O)OCC)c3ccc4ccccc4c3C2(C)C)C(C)(C)c2c1ccc1ccccc21.[Br-] [Dye 3n, 3,3′-Di-(4-ethoxycarbonylbutyl)-1,1,1′,1′-tetramethyl-1H-dibenzo[e]indocarbocyanine bromide] | 0.43 |  | − | − | + | ++ |
| CCOC(=O)CCCCCN1C(=CC=CC2=[N+](CCCCCC(=O)OCC)c3ccc4ccccc4c3C2(C)C)C(C)(C)c2c1ccc1ccccc21.[Br-] [Dye 3o, 3,3′-Di-(5-ethoxycarbonylpentyl)-1,1,1′,1′-tetramethyl-1H-dibenzo[e]indocarbocyanine bromide] | 0.36 |  | − | − | ++ | ++ |
| CCOC(=O)CCCCCCN1C(=CC=CC2=[N+](CCCCCCC(=O)OCC)c3ccc4ccccc4c3C2(C)C)C(C)(C)c2c1ccc1ccccc21.[Br-] [Dye 3p, 3,3′-Di-(6-ethoxycarbonylhexyl)-1,1,1′,1′-tetramethyl-1H-dibenzo[e]indocarbocyanine bromide] | 0.35 |  |  |  |  |  |
